These results are taken from paper PMC3921447, “Homologous and heterologous desensitization of guanylyl cyclase-B signaling in GH3 somatolactotropes” (Cell and Tissue Research, 2013).

The target of one assay is T1, GC-B (Rattus norvegicus, UniProt P16067).
T1 construct: rapid homologous desensitization of endogenous GC-B receptors in GH3 cells; endogenous in cells; host or cells: GH3 rat somatolactotrope cells
T1 sequence (P16067 17-1047): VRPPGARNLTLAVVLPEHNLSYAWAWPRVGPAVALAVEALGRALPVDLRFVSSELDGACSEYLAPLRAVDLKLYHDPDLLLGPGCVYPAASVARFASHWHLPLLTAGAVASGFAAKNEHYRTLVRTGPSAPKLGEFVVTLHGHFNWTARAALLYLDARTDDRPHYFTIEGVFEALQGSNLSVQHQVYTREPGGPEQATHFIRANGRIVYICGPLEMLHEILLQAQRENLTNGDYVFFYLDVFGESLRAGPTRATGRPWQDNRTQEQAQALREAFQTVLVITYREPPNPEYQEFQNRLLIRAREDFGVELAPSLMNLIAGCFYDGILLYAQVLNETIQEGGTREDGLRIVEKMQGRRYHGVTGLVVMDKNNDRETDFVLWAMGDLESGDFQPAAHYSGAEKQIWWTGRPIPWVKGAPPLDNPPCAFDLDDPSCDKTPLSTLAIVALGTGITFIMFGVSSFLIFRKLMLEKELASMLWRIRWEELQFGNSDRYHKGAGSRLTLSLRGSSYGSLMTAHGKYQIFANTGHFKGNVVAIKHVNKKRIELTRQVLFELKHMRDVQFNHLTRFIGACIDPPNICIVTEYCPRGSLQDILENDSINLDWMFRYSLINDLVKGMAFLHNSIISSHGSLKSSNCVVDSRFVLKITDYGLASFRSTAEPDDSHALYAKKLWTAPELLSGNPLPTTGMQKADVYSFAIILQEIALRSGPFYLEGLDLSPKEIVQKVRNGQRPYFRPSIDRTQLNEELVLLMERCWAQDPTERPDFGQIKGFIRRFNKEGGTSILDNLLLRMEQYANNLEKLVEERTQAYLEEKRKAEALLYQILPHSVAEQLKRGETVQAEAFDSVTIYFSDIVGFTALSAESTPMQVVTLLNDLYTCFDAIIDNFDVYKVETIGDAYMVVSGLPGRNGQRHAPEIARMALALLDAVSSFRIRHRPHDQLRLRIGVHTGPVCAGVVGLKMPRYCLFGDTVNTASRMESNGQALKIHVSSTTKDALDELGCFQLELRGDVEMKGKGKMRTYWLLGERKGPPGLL
Description: CNP time-course of total cGMP accumulation (rapid homologous desensitization) in GH3 cells. In kind it is cell-based. Conditions: 100 nM CNP, 1 mM IBMX, n = 3 in triplicate. Here is the method: To characterize the activity of these receptors further , a series of experiments was performed to examine mechanisms of receptor desensitization. Total cGMP accumulation was measured to determine the changes in activity of the GC-A and GC-B receptors when treated over a short time-course with their native ligands, namely ANP and CNP, respectively. GH3 cells were plated at 3 × 10^5 cells/well in a 24-well plate, treated with 100 nM of either ANP or CNP in the presence of the phosphodiesterase inhibitor IBMX (1 mM) for 0 to 15 min and assayed for total cGMP concentration (Fig. 2a, b). […] In another experiment performed with 100 nM ANP instead of CNP, a rapid increase in cGMP accumulation (7.91 ± 0.9 to 164.31 ± 9.1pmol/ml per milligram protein) occurred between 0 and 5 min.
Fig. 2 Rapid homologous desensitization of CNP-dependent but not ANP-dependent cGMP accumulation in GH3 cells. Cells were treated with PSS containing either (a) 100 nM CNP or (b) 100 nM ANP for 0–15 min in the presence of 1 mM IBMX.

For another assay, the system named is Npr2. Description: Npr2 mRNA expression by qPCR in GH3 cells. Conditions: 100 nM CNP, 24 h; n = 3; Fig. 4a. Type of assay: cell-based, rat. As to the method:
Total RNA was extracted from 1 × 10^6 GH3 cells or from male Sprague Dawley rat pituitaries by using Tri-reagent (Sigma-Aldrich, Poole, UK) and subjected to DNase treatment (Qiagen, Manchester, UK) before generation of first-strand cDNA (Applied Biosystems, Warrington, UK). Polymerase chain reaction (PCR) was performed for a range of targets for 30 cycles by using the primers and conditions published previously (Thompson et al. [2009]). In some instances, GH3 cells were treated with 0 or 100 nM CNP for 24 h prior to RNA extraction. These samples were processed for […] PCR (qPCR) analyses with commercially available rat Npr2 and 18S primer sets (Qiagen, Manchester, UK) under standard SYBR conditions as described previously (Bayol et al. [2010]).
We next examined whether Npr2 or GC-B down-regulation (as determined by a reduction in Npr2 mRNA expression and or GC-B protein expression) mediated the inhibitory effects of sustained CNP exposure. The effect of CNP exposure on the expression of the endogenous Npr2 gene was examined by using qPCR. […]
Fig. 4 CNP fails to alter expression of Npr2 mRNA or GC-B protein in GH3 somatolactotrope cells. a GH3 cells were stimulated with 0 or 100 nM CNP for 24 h prior to extraction of total RNA, cDNA synthesis, and quantitative PCR for endogenous Npr2 expression. […]
Background: In qPCR the cycle at which signal appears reflects the starting amount.

For a further assay, the system named is GC-A. Conditions: ref Suga et al. [1992]; cited from earlier work. An excerpt: (§1) As activation of either GC-B or GC-A signaling leads to an increase in cGMP concentrations, we examined whether stimulation of each receptor would lead to the desensitization of the other receptor.
For another assay, the system named is αT3-1 cells. Conditions: ref Fowkes et al. [2000]; cited from earlier work.
Description: as §1

The next assay deals with growth hormone secretion. Conditions: ref Hartt et al. [1995]; Shimekake et al. [1994]; cited from earlier work. The source says: Both humans and mice with mutations in the genes encoding either CNP or its receptor, GC-B, suffer from severe growth disorders (Chusho et al. [2001]) and, in some cases, growth hormone deficiency (Tamura et al. [2004]). Despite significant homology between the three natriuretic peptides and between their receptors, mutations in the genes encoding ANP, BNP, or GC-A fail to phenocopy CNP/GC-B-disrupted mice (Kishimoto et al. [2011]). Our recent observations of GC-B expression in normal fetal pituitary tissue and in a range of human pituitary adenomas (including those from acromegalics) strongly ...

Consider `CC[C@H](C)[C@@H]1NC(=O)[C@H](CCCNC(=N)N)NC(=O)[C@H](CC(=O)O)NC(=O)[C@H](CC(C)C)NC(=O)[C@H](CCCCN)NC(=O)[C@H](CC(C)C)NC(=O)CNC(=O)[C@H](Cc2ccccc2)NC(=O)[C@@H](NC(=O)CNC(=O)[C@H](CCCCN)NC(=O)[C@H](CO)NC(=O)[C@H](CC(C)C)NC(=O)CN)CSSC[C@@H](C(=O)O)NC(=O)CNC(=O)[C@H](CC(C)C)NC(=O)CNC(=O)[C@H](CO)NC(=O)[C@H](CCSC)NC(=O)[C@H](CO)NC(=O)CNC1=O` [CNP, C-type natriuretic peptide], for which the “total cGMP accumulation, 0 min” value at GC-B (0 min (start of time-course), mean ± SEM) is given as 6.4 ± 0.7 pmol/ml per milligram protein. Further, the “rate of cGMP accumulation between 5 to 15 min as % of the initial rate (0 to 5 min)” value at GC-B (***P < 0.001) came out at 22.2 ± 3.9%. The “total cGMP accumulation, 5 min” value at GC-B (5 min, mean ± SEM) is on record as 82.7 ± 15.5 pmol/ml per milligram protein. Besides, the “total cGMP accumulation, 15 min” value at GC-B (15 min, mean ± SEM) is 117.4 ± 17.6 pmol/ml per milligram protein. For the same compound, the “Npr2 mRNA expression” value in the assay on Npr2 was “failed to alter Npr2 expression in GH3 cells”. The “activation of the reciprocal receptor” value with GC-A is “can activate the reciprocal receptor, albeit only at pharmacological concentrations”. In the assay on αT3-1 cells, the “desensitization of the other receptor” value was “fail to desensitize the other receptor”. Also, the growth hormone secretion entry with growth hormone secretion is on record as “act as growth hormone secretogogs”.
